One may read the IC50 as the concentration that gives 50% inhibition. Low values mean greater potency in that assay, high ones weaker potency in that assay. As usually defined, the EC50 is the concentration that produces a half-maximal response.

Like-named read-outs stand apart in the source and are kept apart here.

One data set relates to H146 cell line. The experiment in a line: CellTiter-Glo cell viability, H146. It is filed as cell-based. Particulars: Homo sapiens, NCI-H146; 72 h of treatment. The procedure: Cells were seeded into 96-well plates and treated at 8 points with 1:2 serial dilution of compounds. Cell viability was assessed and assayed for viability using CellTiter-Glo reagent (Promega) following the manufacturer's instructions. Plates were read using Tecan luminescence plate reader. Results were normalized to the viability of cells without compounds (control wells). The IC50 values were calculated using nonlinear regression algorithms in XCell software.
In general terms: ATP-based viability assays read luminescence as a measure of living cells.

The next data set deals with Toledo xenograft. The experiment in a line: Toledo xenograft efficacy. It is filed as in vivo, mice. The note with it: day 21; for Mean TV change: mean ± s.e.m. The procedure: Experiments were performed in SCID/beige female mice from Charles River Laboratories, Massachusetts, USA. Animals, approximately 7-8 weeks of age at the start of the treatment were allowed to acclimate in animal facility with access to food and water ad libitum for 3 days prior to manipulation. Animals were handled in accordance with IACUC regulations and guidelines for experiments performed in the USA and with European and French regulation for the protection of vertebrate animals for experiments performed in France. Animal well-being and behavior, including grooming and ambulation were monitored at least once a day. General health of mice was monitored and mortality recorded daily. Any moribund animals were sacrificed.
RS4;11 Acute Lymphoblastic Leukemia cell lines was obtained from ATCC. Toledo (Diffuse Large B-Cell Lymphoma) human cell lines were obtained internally through Bioresources and the Novartis-Cancer Cell Line Encyclopedia. Cells were free of Mycoplasma and murine viral contamination in the IMPACT VIII PCR assay panel (IDEXX RADIL, IDEXX laboratories INC, Westbrook, ME, USA). Cells used for subcutaneous implantation were cultured in RPMI plus 10% FBS at 37° C in a humidified atmosphere containing 5% carbon dioxide). […] Cells were resuspended in a 1:1 mixture of cold DPBS (Dulbecco's Phosphate-Buffered Saline) and Matrigel™ (Becton-Dickinson #354234) at a concentration of 3 × 10^7 cells/ml for Toledo cells, and of 1 × 10^7 cells/ml for RS4;11 cells.
For each experiment, female SCID/beige mice were implanted subcutaneously (right axillary region) with 3 × 10^6 Toledo or RS4;11 (1 × 10^6 cells for efficacy studies and 1 × 10^7 cells for pharmacodynamics studies) suspended in 1:1 mixture of cold DPBS and Matrigel™ in a total volume of 100 μl. Body weights were recorded and tumors were measured with digital calipers twice to three times a week. Tumor volume was calculated using the formula: length × width^2/2. Percent changes in body weights was calculated as (BWcurrent - BWinitial)/(BWinitial) × 100. Data is presented as percent body weight change from the day of treatment initiation.
(§1) When tumors reached approximately 200 mm^3 for efficacy studies or 300 mm^3 for pharmacodynamic studies, mice were randomized. […] Mice were treated via oral gavage at 10 ml/kg with the doses and schedules described in the figure.
For efficacy studies, percent treatment/control (T/C) values were calculated using the following formula: %T/C = 100 × ΔT/ΔC if ΔT > 0. Regression = 100 × ΔT/Tinitial if ΔT < 0 where: T = mean tumor burden of the drug-treated group on the final day of the study; ΔT = mean tumor burden of the drug-treated group on the final day of the study – mean tumor burden of the drug-treated group on initial day of dosing; Tinitial = mean tumor burden of the drug-treated group on initial day of dosing; C = mean tumor burden of the control group on the final day of the study; and ΔC = mean tumor burden of the control group on the final day of the study – mean tumor burden of the control group on initial day of dosing. If the tumor volume was less than 14 mm^3 for more than 3 consecutive measurements, animals were considered in complete regression (CR).

The next data set concerns the target BCL-2 (Homo sapiens, UniProt P10415). The experiment in a line: Isothermal titration calorimetry (ITC), BCL-2. Particulars: binding to BCL-2. The protocol:
The protein was dialyzed prior to use in 2 L of 25 mM HEPES, 150 mM NaCl, 5% glycerol (v/v), 0.5% MTG (v/v) at pH 7.4 for 3 hours at room temperature. The protein was dialyzed using a 3.5 K MWCO Slide-A-Lyzer™ cassette. The protein solution was recovered, spin-filtered through a […] frit. The filtered protein was quantified by UV absorbance at 280 nm using an extinction coefficient of 36440 M^-1cm^-1. 500 ml of dialysis buffer was retained (remainder used to rinse out SCHOT bottle) and degassed for a minimum of 30 mins under vacuum with constant stirring. […] The solutions were carefully matched to ensure same solvent and buffer conditions were present in both syringe and cell (this is to minimize heat of dilution effects). The final solution was the dialysis buffer plus 1% DMSO and 0.05% P20. The experiment was performed over 13 injections with stirring at 1000 rpm, gain setting low and at 25° C. Pure water was used in the reference cell. The first injection was 0.5 μl with a duration of 1 second with a gap of 150 seconds until the further 12 injections of 3.05 μl with a duration 6.1 seconds and a 240 second interval between injections. Data was analyzed using the vendor supplied software, PEAQ-ITC Analysis Software. The data model used was the single site model. The data shown is the average of 2 or 3 independent experiments.
A general note: ITC needs no label: the signal is the heat of the interaction.

The test system of another data set is platelets. The experiment in a line: Platelet counts in RS4;11-bearing mice. Type of data set: in vivo. Particulars: 25 and 100 mg/kg single oral dose, 16 h post dosing. The protocol: as §1
For pharmacodynamic studies, blood and tumors were removed 16 h post dosing and immediately snap-frozen. Total proteins were extracted from the tumors and caspase-3 activity was assessed in triplicate using CaspACE® Assay System (Promega). Platelet cell counts were determined 16 hours post dosing using Coulter AcT diff (Beckman).

Data set [1] has as its system primary Chronic Lymphocytic Leukemia cells. The experiment in a line: Apoptosis (annexin V/PI flow cytometry) in primary CLL cells. Type of data set: cell-based. The note with it: Homo sapiens, CLL cell, 4 h. The protocol:
Peripheral blood samples from CLL patients were obtained with informed patient consent and local ethical committee approval (UHL-09723). […] Interphase fluorescence in situ hybridization (FISH) was performed for detection of 17p13 deletion. Mantle cell lymphoma (MCL) primary cells were obtained after informed consent from MCL patients treated at the department of clinical hematology from the University Hospital of Nantes, France. Peripheral MCL cells from blood or pleural effusion, were purified after Ficoll-Hypaque separation with immuno-magnetic anti-CD19 beads (Miltenyi, Paris, France). Primary cells were cultured in RPMI-1640 supplemented with 10% FCS and 2 mM glutamine. Human platelets were isolated from citrate blood donated by healthy volunteers. Washed platelets were cultured in Hepes-buffered saline (HBS, 10 mM Hepes, 150 mM NaCl, 5 mM KCl, 1 mM MgSO4, pH 7.4). […] EC50 values were calculated using GraphPadPrism (non-linear fit, sigmoidal dose response, variable slope). […] Cell death was assessed in the CD19+ primary MCL cells by annexinV-FITC staining combined with an analysis of altered cellular morphology (lower FCS). Fluorescence was analyzed on FACSCalibur.
On the technique in general: Flow cytometry measures light scatter and fluorescence of single cells or particles in a stream.

Setting [2] is: 200 mg/kg oral five times a week for 3 weeks.
The mark [3] stands for this setting: 300 mg/kg oral five times a week for 3 weeks.

Chain of BCL-2 (P10415 whole entry): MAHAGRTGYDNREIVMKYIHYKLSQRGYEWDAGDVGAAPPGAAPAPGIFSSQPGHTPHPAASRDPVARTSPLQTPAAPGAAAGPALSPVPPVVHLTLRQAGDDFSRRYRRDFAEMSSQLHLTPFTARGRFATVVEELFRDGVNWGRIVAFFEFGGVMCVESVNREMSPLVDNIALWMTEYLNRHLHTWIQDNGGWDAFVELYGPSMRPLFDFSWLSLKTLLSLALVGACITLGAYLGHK

Regarding `O=C(c1cc(-c2cc3c(cc2C(=O)N2Cc4ccccc4C[C@H]2CN2CCOCC2)OCO3)n2c1CCCC2)N(c1ccccc1)c1ccc(O)cc1` [S55746], the half-inhibitory concentration (IC50) in the data set with H146 cell line came out at 1700 nM. In addition, the “% T/C” value in the data set on Toledo xenograft (setting [2]) is 13 % T/C; in the data set with Toledo xenograft (setting [3]), 2 % T/C. In addition, the “Mean TV change” value in the data set on Toledo xenograft (setting [2]) came to 239.03 ± 67.97 mm3; with Toledo xenograft (setting [3]) it was 33.16 ± 37.38 mm3. Besides, the “N (sites), stoichiometry” value on BCL-2 is given as 1.1 sites. The “∆H (enthalpy delta)” value at BCL-2 was “–13.5 kcal/mol”. Besides, the “platelet counts in vivo” value in the data set with platelets is listed as “did not induce platelet loss”. Further, the EC50 in data set [1] (7 patients, 4 hours of treatment, read-out: EC50 apoptosis in primary CLL cells, range over patients) was 4.4 to 47.2 nM; in data set [1] (read-out: EC50 S55746 primary CLL cells, patient CLL1, p17 del No, 4 h), 47.2 nM; in data set [1] (read-out: EC50 S55746 primary CLL cells, patient CLL2, p17 del No, 4 h), 13.8 nM; in data set [1] (read-out: EC50 S55746 primary CLL cells, patient CLL3, p17 del Yes, 4 h), 13.7 nM; in data set [1] (read-out: EC50 S55746 primary CLL cells, patient CLL4, p17 del No, 4 h) it was 12 nM; in data set [1] (read-out: EC50 S55746 primary CLL cells, patient CLL5, p17 del No, 4 h), 9.9 nM. The EC50 in data set [1] (read-out: EC50 S55746 primary CLL cells, patient CLL6, p17 del Yes, 4 h) amounted to 7.8 nM; in data set [1] (read-out: EC50 S55746 primary CLL cells, patient CLL7, p17 del No, 4 h), 4.4 nM.

For the origin of these results see article PMC5929447 (Oncotarget, 2018).
